Tests used:
Type in all cases: cell-based
MMP-9 = test: Gelatin zymography of human myoblasts, MMP-9
Description: Briefly, myoblasts were grown in 6 cm tissue culture plates to approximately 70% confluence, then rinsed three times with serumfree DMEM and incubated for 3 hours in DMEM containing 0.2% BSA to eliminate the effects of serum. Growth factors were added and cells were incubated for 24 hours. Culture medium was then collected, centrifuged to pellet detached cells, and concentrated ten-to twenty-fold using the Centricon-10 (Amicon, Beverly, Mass.) system. The protein concentration of the supernatants was determined using the Bio-Rad protein microassay system with BSA used as the standard. Samples were stored at −70° C. until use. For gelatin zymography, aliquots (10 μg as the total protein per sample) were electrophoresed at constant voltage on a 10% polyacrylamide gel containing 2 mg/ml gelatin. The gel was rinsed three times for 15 min in 2.5% Triton-X 100 to remove SDS and renature the proteins, then incubated in MMP activation buffer (0.05 M Tris-HCl, pH 7.5 with 5 mM CaCl2) for 24 hours at 37° C. with constant shaking. Gels were stained overnight in 0.5% Coomassie blue R-250, and destained for 1 hour in 40% methanol: 10% acetic acid. Proteinase activity was quantified by densitometric scanning of bands using a Bio-Rad Gel Doc 1000 video camera imaging system (Bio Rad, Hercules, Calif.).

MMP-1 = test: Gelatin zymography of mouse myoblast culture medium, MMP-1; details: mouse myoblasts
Description: Gelatin zymography for assaying MMPs was carried out as previously described (Guerin and Holland “Synthesis and secretion of matrix-degrading metalloproteinases by human skeletal muscle satellite cells” Devel. Dynamics 202:91-99,1995) with minor modifications. Briefly, myoblasts were grown in 6 cm tissue culture plates to approximately 70% confluence, then rinsed three times with serumfree DMEM and incubated for 3 hours in DMEM containing 0.2% BSA to eliminate the effects of serum. Growth factors were added and cells were incubated for 24 hours. Culture medium was then collected, centrifuged to pellet detached cells, and concentrated ten-to twenty-fold using the Centricon-10 (Amicon, Beverly, Mass.) system. The protein concentration of the supernatants was determined using the Bio-Rad protein microassay system with BSA used as the standard. Samples were stored at −70° C. until use. For gelatin zymography, aliquots (10 μg as the total protein per sample) were electrophoresed at constant voltage on a 10% polyacrylamide gel containing 2 mg/ml gelatin. […] Proteinase activity was quantified by densitometric scanning of bands using a Bio-Rad Gel Doc 1000 video camera imaging system (Bio Rad, Hercules, Calif.). […]

human myoblasts = test: In vitro human myoblast invasion of Matrigel; details: 24 hour time point
Description: Mouse myoblasts were previously isolated from hind limb muscles of 4-6 week old severe combined immunodeficient (SCID) mice and clonally purified from contaminating fibroblasts (Yao et al. “Primary myoblast-mediated gene: transfer: persistent expression of human factor IX in mice” Gene Therapy 1:99-107, 1994). Myoblasts (approximately 1×10^6 cells) were plated on 6 cm tissue culture plates coated with 0.5% gelatin (Sigma, St. Louis, Mo.) and grown in growth medium consisting of Dulbecco's Modified Eagle Medium (DMEM) (Gibco BRL, Gaithersburg Md.) supplemented with 20% fetal bovine serum (FBS; Gibco) and 0.5% chick embryo extract (CEE; Gibco). All animal studies were carried out following the institutional guidelines for ethical animal use. Human myoblasts were isolated using trypsin digestion from abdominal wall or chest wall muscle biopsies, and surgery. […] Myoblast migration and invasion were examined using a commercially available in vitro cell migration and invasion assay kit (Biocoat, Becton Dickinson, Franklin Lakes, N.J.) as described by Albini et al. (A rapid in vitro assay for quantitating the invasive potential of tumor cells Cancer Res 47:3239-3245, 1987). […] The number of cells per field was counted in 10 randomly selected fields and averaged for each condition. […]

Row | Substance | effect on MMP-9 expression (92 kDa band) (MMP-9) | MMP-1 expression (57 kDa) (MMP-1) | stimulation of human myoblast invasion of Matrigel over the BSA control (human myoblasts) [fold]
1 | bovine basic fibroblast growth factor [bFGF] | only marginal increases in MMP-9 expression | – | –
2 | human serum fibronectin | – | does not significantly affect | 2.3

From patent publication US20010055590A1, “Method for enhancing myoblast migration and invasion in the context of gene therapy” (priority 1999, published 2001)
